Reference: US20250388544A1, “HETEROAROMATIC INHIBITORS OF ASTACIN PROTEINASES” (VIVORYON THERAPEUTICS N.V., priority 2019, published 2025)

How the values were obtained:
Assay type in all cases: biochemical
hMeprin α [1] = target: T1, hMeprin α (Homo sapiens, UniProt Q16819); assay: Enzymatic assay, quenched peptide substrate cleavage, method B; details: geometric mean (geometric SD factor in parentheses); for Ki: Morrison's equation, read-out: Meprin alpha Ki(app); for IC50: read-out: Meprin alpha IC50
T1 sequence (Q16819 66-746): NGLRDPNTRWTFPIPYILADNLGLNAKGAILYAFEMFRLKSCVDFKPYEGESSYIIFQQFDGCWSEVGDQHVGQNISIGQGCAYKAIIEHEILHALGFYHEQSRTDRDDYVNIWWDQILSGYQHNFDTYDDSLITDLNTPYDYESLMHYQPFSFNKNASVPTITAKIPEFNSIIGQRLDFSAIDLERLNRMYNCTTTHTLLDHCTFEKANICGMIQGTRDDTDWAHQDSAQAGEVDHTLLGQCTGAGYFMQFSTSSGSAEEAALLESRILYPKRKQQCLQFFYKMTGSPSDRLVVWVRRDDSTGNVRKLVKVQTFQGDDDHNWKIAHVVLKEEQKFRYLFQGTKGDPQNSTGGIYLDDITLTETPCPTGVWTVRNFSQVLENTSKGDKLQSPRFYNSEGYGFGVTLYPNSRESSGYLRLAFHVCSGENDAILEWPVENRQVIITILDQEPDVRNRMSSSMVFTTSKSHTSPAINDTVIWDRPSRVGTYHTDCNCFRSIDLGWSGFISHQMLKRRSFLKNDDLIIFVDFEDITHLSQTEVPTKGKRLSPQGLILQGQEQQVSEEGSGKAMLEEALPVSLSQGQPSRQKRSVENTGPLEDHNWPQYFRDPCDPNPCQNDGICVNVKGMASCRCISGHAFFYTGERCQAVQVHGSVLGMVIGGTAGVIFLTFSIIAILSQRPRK
In short: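 Cleavage of internally quenched peptides was read at 340/420 nm and 30° C., with enzyme at 5e-8 to 2e-10 M and substrate at 0.15–80 μM. Inhibitor solutions contained 1% DMSO and substrate 0.5% DMSO. Method B gave Ki(app) values via Morrison's equation, with kinetics measured in at least duplicate on separate days.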

hMeprin β = target: T2, hMeprin β (Homo sapiens, UniProt Q16820); assay: Enzymatic assay, quenched peptide substrate cleavage, method A; details: geometric mean (geometric SD factor in parentheses), read-out: Meprin beta IC50
T2 sequence (Q16820 62-701): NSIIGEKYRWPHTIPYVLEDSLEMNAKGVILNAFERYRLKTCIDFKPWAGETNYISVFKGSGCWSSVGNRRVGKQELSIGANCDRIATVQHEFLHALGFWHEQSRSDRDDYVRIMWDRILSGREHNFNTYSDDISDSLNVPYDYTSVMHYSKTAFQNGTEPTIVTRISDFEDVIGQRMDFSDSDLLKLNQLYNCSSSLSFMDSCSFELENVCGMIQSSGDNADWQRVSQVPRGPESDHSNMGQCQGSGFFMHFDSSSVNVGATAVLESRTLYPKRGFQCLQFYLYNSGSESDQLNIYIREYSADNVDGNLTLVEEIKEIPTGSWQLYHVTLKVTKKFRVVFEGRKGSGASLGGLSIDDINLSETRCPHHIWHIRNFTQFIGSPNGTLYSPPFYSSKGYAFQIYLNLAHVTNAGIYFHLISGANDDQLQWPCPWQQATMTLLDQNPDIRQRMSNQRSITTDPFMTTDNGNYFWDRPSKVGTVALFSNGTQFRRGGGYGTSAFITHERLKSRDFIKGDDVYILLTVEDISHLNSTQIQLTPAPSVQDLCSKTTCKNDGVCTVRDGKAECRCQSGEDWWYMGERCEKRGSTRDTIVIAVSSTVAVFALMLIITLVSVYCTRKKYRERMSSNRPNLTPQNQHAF
Method: (§1) The determination of enzymatic activity was based on the cleavage of internally quenched peptide substrates. A typical assay of 250 μl total volume measured in black 96 well plates consisted of 100 μl buffer, 50 μl enzyme at a final concentration of 5e-8 M to 2e-10 M, 50 μl substrate (0.15 to 80 μM, in buffer, 0.5% DMSO) and 50 μl inhibitor solution (in buffer, 1% DMSO). In case of 125 μl assay volume (black 96 half area well plates) all volumes were cut in half. Enzymatic activity of ADAMs was measured in 384 well plates with 60 μl total assay volume consisting of 20 μl inhibitor, 20 μl buffer, 10 μl enzyme and 10 μl substrate.
(§2) Based on method B Ki^(app) values were determined using Morrison's equation. All measurements were performed using a fluorescence plate reader (FLUOSTAR OPTIMA, BMG Labtech) at 30° C. The kinetic parameters were determined at least in duplicates on separate days. The excitation/emission wavelength was 340/420 nm. The kinetic data was evaluated using GRAFIT software (version 7.0.3, Erithacus Software).

hMeprin α [2] = target: T1, hMeprin α; assay: as above; details: geometric mean (geometric SD factor in parentheses), read-out: Meprin alpha IC50
Method: as §1, §2

Row | IC50 (hMeprin β) | IC50 (hMeprin α [2]) | SMILES | Ki (hMeprin α [1]) | IC50 (hMeprin α [1])
1 |  |  | O=C(Cc1c(-c2ccc3c(c2)OCO3)n[nH]c1-c1ccccc1)NO [Example 50, 2-[3-(1,3-Benzodioxol-5-yl)-5-phenyl-1H-pyrazol-4-yl]ethanehydroxamic acid] | 1 nM | 1 nM
2 | 8070 nM | 108 nM | O=C(CCc1c(-c2ccccc2)n[nH]c1-c1ccccc1)NO [Example 3, 3-(3,5-Diphenyl-1H-pyrazol-4-yl)propanehydroxamic acid] | 78 nM | 80 nM
3 |  |  | COc1ccc(-c2n[nH]c(-c3ccccc3)c2CC(=O)NO)cc1OC [Example 49, 2-[3-(3,4-Dimethoxyphenyl)-5-phenyl-1H-pyrazol-4-yl]ethanehydroxamic acid] | 0.71 nM | 0.79 nM
4 |  |  | O=C(Cc1c(-c2ccccc2)nn(Cc2ccc3c(c2)OCO3)c1-c1ccccc1)NO [Example 43, 2-[1-(1,3-Benzodioxol-5-ylmethyl)-3,5-diphenyl-1H-pyrazol-4-yl]ethanehydroxamic acid] | 0.59 nM | 0.75 nM
5 | 1140 nM | 72 nM | O=C(Cn1c(-c2ccccc2)cc2ccccc21)NO [Example 25, 2-(2-Phenylindol-1-yl)ethanehydroxamic acid] |  | 
6 | 13700 nM | 32 nM | O=C(CCc1c(-c2ccccc2)noc1-c1ccccc1)NO [Example 4, 3-(3,5-Diphenylisoxazol-4-yl)propanehydroxamic acid] |  | 
7 |  |  | O=C(Cc1c(-c2ccccc2)nn(Cc2ccc(C(=O)O)cc2)c1-c1ccccc1)NO [Example 40, 4-[[4-(2-(Hydroxyamino)-2-oxo-ethyl]-3,5-diphenyl-1H-pyrazol-1-yl]methyl]benzoic acid] | 0.38 nM | 0.45 nM
8 | 4320 nM | 34 nM | O=C(Cn1c(-c2ccccc2)ccc1-c1ccccc1)NO [Example 9, 2-(2,5-Diphenylpyrrol-1-yl)ethanehydroxamic acid] |  | 
9 |  |  | O=C(Cc1c(-c2cc(F)c(O)c(Cl)c2)n[nH]c1-c1ccccc1)NO [Example 54, 2-[3-(3-Chloro-5-fluoro-4-hydroxy-phenyl)-5-phenyl-1H-pyrazol-4-yl]ethanehydroxamic acid] | 0.14 nM | 0.21 nM
10 | 204 nM | 4 nM | O=C(Cc1c(-c2ccccc2)n[nH]c1-c1ccccc1)NO [Example 1, 2-(3,5-Diphenyl-1H-pyrazol-4-yl)ethanehydroxamic acid] |  | 1 nM
11 |  |  | O=C(Cc1c(-c2cccc(C(=O)O)c2)n[nH]c1-c1ccc(Cl)c(O)c1F)NO [Example 63, 3-[5-(4-Chloro-2-fluoro-3-hydroxy-phenyl)-4-[2-(hydroxyamino)-2-oxo-ethyl]-1H-pyrazol-3-yl]benzoic acid] | 5 nM | 5 nM
12 |  |  | O=C(Cc1c(-c2ccccc2)nn(Cc2cccc(C(=O)O)c2)c1-c1ccccc1)NO [Example 41, 3-[[4-[2-(Hydroxyamino)-2-oxo-ethyl]-3,5-diphenyl-1H-pyrazol-1-yl]methyl]benzoic acid] | 0.33 nM | 0.39 nM
13 | 1630 nM | 173 nM | O=C(Cn1c(-c2ccccc2)nc2ccccc21)NO [Example 13, 2-(2-Phenylbenzimidazol-1-yl)ethanehydroxamic acid] | 128 nM | 141 nM
14 |  |  | O=C(Cc1c(-c2ccccc2)nn(Cc2ccc(Cl)c(O)c2F)c1-c1ccccc1)NO [Example 42, 2-[1-(4-Chloro-2-fluoro-3-hydroxybenzyl)-3,5-diphenyl-1H-pyrazol-4-yl]ethanehydroxamic acid] | 0.08 nM | 0.16 nM
15 | 8710 nM | 69 nM | O=C(Cn1c(-c2ccccc2)nnc1-c1ccccc1)NO [Example 7, 2-(3,5-Diphenyl-1,2,4-triazol-4-yl)ethanehydroxamic acid] |  | 
16 |  |  | COc1cccc(-c2n[nH]c(-c3ccccc3)c2CC(=O)NO)c1 [Example 47, 2-[3-(3-Methoxyphenyl)-5-phenyl-1H-pyrazol-4-yl]ethanehydroxamic acid] | 1 nM | 1 nM

Row | SMILES | IC50 (hMeprin β) | IC50 (hMeprin α [2]) | Ki (hMeprin α [1]) | IC50 (hMeprin α [1])
17 | O=C(Cc1c(-c2ccccc2)noc1-c1ccccc1)NO [Example 2, 2-(3,5-Diphenylisoxazol-4-yl)ethanehydroxamic acid] | 831 nM | 7 nM | 4 nM | 4 nM
